Where no end group is shown, it is not given here.

The assay relates to neuromuscular transmission. The assay can be described thus: Neuromuscular assay (electromyography after topical application). The format is in vivo, guinea pigs. To be noted: 18 hours later. On the procedure: To determine the effect of different formulations and dosages of compositions according to the invention, varying amounts of topical TP5 compositions prepared as described in Example 1B, were applied to the skin of guinea pigs.
A 11/2"×11/2" square section was shaved on each animal's back 24 hours before the application of the thymopentin composition. Four concentrations of thymopentin cream were used (10%, 5%, 2.5% and 1.25%) using Unibase® as a diluent. A total of 100 mg of cream containing either 10 mg, 5 mg, 2.5 mg or 1.25 mg thymopentin was rubbed with a spatula on the shaved skin of each animal. Control animals were treated similarly with the Unibase® carrier only.
Eighteen hours later the neuromuscular transmission of each group of five animals for each concentration was assessed by electromyography as described in Lancet, 12:256-259 (1975).

For RKDVY [thymopentin], the “neuromuscular change compared to control animals” value is “Significant neuromuscular change” (5% thymopentin cream in Unibase, 100 mg cream (5 mg thymopentin) on shaved skin) and “Significant neuromuscular change” (10% thymopentin cream in Unibase, 100 mg cream (10 mg thymopentin) on shaved skin).

For the origin of these results see patent US5036050A, “Compositions containing thymopentin for topical treatment of skin disorders” (Immunobiology Research Institute, Inc., priority 1989, dated 1991).
